# Calls of active or inactive are those of the source. How the calls were made is not given here.
# Test system: S. cerevisiae expressing PfHSP40, growth rescue, plate reader
# Assay: S cerevisiae expressing PfHSP40, growth rescue, cherry pick dose confirmatory, plate reader (AID 540271);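 further: yeast growth read after three days of incubation at 30 °C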
row,SMILES,AC50
1,Cc1ccc(-c2cc(-c3ccc(C)cc3)[n+](-c3ccccc3)c(-c3ccc(C)cc3)c2)cc1,5.4 µM
2,O=c1c(O)cccc2cc(O)c(O)c(O)c12,3.63 µM
3,O=c1cnn([C@@H]2O[C@H](CO)[C@@H](O)[C@H]2O)c(=O)[nH]1,> 12 µM (inactive)
4,c1ccc(Nc2cccc(Nc3ccccc3)c2)cc1,5.81 µM
5,CC(=O)Nc1ccc2c(c1)Cc1cc(N3C(=O)C=CC3=O)ccc1-2,0.526 µM
6,Oc1c(Cl)c(Cl)c(Cl)c(Cl)c1Cl,2.89 µM
7,CC(=O)C1=C(c2ccc(Br)cc2)C(=O)c2ccccc2C1=O,2.62 µM
8,O=C(N[C@@H](Cc1ccccc1)C(=O)CCl)OCc1ccccc1,2.19 µM
9,CC(NC(=S)NC1CCC(C(C)(C)C)CC1)c1ccccc1 (stereo not given),6.86 µM
10,COc1ccc(OC)c(-c2c3cc(O)c(=O)cc-3oc3cc(O)c(O)cc23)c1,3.79 µM
11,Cn1cnc([N+](=O)[O-])c1S(=O)(=O)Oc1ccc(Cl)cc1,6.4 µM
12,C=CCNc1nc(-c2ccccn2)nnc1-c1ccccc1,10.3 µM
13,CCCCC(CC)c1nnc(NC(=O)c2cccs2)s1 (stereo not given),6.66 µM
14,O=C(C1CCN(C2CC(=O)N(c3cccc(Cl)c3)C2=O)CC1)N1CCCC1 (stereo not given),6.02 µM
15,CN(C)c1nc(SCc2ccc(Cl)cc2)nc2c1CCCC2,5.58 µM
16,O=C(CSc1nc2ccccc2s1)N/N=C/c1cc([N+](=O)[O-])ccc1O,5.52 µM
17,COc1cccc(/C=N/Nc2ncnc(Cl)c2N)c1O,4.52 µM
18,c1ccc(CSc2ccc(-c3ccccn3)nn2)nc1,4.49 µM
19,O=C1CC(O)(C(F)(F)F)Oc2c1ccc1ccccc21 (stereo not given),5.78 µM
20,O=C(c1ccc(-c2ccccc2)cc1)C1CCCN(C(=O)c2cncs2)C1 (stereo not given),5.93 µM
21,O=C(O)c1ccccc1NC(c1ccccc1)c1ccc2cccnc2c1O (stereo not given),2.19 µM
22,O=C1OCC(CO)(CO)N=C1NNc1ccc(Cl)c(Cl)c1,1.87 µM
23,N#C/C(=C\Nc1ccccc1O)c1nc2ccccc2o1,9.96 µM
24,O=C(N/N=C/c1cc(Br)ccc1O)c1ccccc1Cl,4.83 µM

row,SMILES,AC50
1,Oc1ccccc1-c1nnc(SCCN2CCOCC2)n1Cc1ccccc1,5.94 µM
2,CSc1nccc(NC(=O)c2ccc(C(C)(C)C)cc2)n1,5.08 µM
3,Cc1onc(-c2c(Cl)cccc2Cl)c1C(=O)N/N=C(\N)COc1ccc(Cl)cc1,3.02 µM
4,O=C1CC(N2CCCCCC2)C(=O)N1c1ccc2c(c1)OCO2 (stereo not given),4.18 µM
5,CC(C)(C)C(O)C(Cc1ccccc1Cl)n1cncn1 (stereo not given),0.215 µM
6,Cc1nn2c(-c3ccncc3)nnc2c2ccccc12,7.28 µM
7,O=C1c2ccccc2-n2c1nc1ccccc1c2=O,1.83 µM
8,CN(C)c1ccc(C=c2c3ccccc3n3c2c2c([n+]3C)CCCC2)cc1,2.64 µM
9,Cc1ccc(CNC(=O)CSc2ccc(-c3ccccn3)nn2)cc1,4.21 µM
10,O/N=C(\c1ccc(Cl)cc1)c1cc2ccccc2o1,5.38 µM
11,Cc1ccc(NC2=C(NC(=O)c3ccccc3)C(=O)c3ccccc3C2=O)cc1Cl,7.65 µM
12,C=C(C)COc1ccc(-c2[nH]ncc2-c2ccccc2)c(O)c1,5.52 µM
13,Cc1cccc(NS(=O)(=O)c2ccc(-c3cnc(C4CC4)o3)cc2)c1C,5.32 µM
14,O=C(N/N=C/c1ccc[nH]1)c1sc2ccccc2c1Cl,6.23 µM
15,COc1cccc(C(=O)Nc2sc(C(C)C)cc2C(N)=O)c1OC,5.46 µM
16,O=C(NNC(=O)c1cc(Cl)ccc1O)c1cccc(S(=O)(=O)N2CCOCC2)c1,5.28 µM
17,Cc1cc(C(=O)COC(=O)Cc2n[nH]c(=O)c3ccccc23)c(C)n1-c1cccc(C(F)(F)F)c1,6.72 µM
18,CCCCCCCCCCOC(=O)Cn1c(COc2ccccc2OC)[n+](C)c2ccccc21,6.39 µM
19,CCOC(=O)c1ccc(NC(=O)CC2C(=O)OCCN2CC)cc1 (stereo not given),4.66 µM
20,Clc1ccccc1C(c1ccccc1)(c1ccccc1)n1ccnc1,0.387 µM
21,S=C(NCc1ccco1)Nc1ccc(Oc2ccc(Cl)cc2)cc1,7.02 µM
22,CCCC(=O)NC(c1ccccc1OC)c1ccc2cccnc2c1O (stereo not given),1.7 µM
23,Cc1nc2ccc(C(C(F)(F)F)(C(F)(F)F)C(F)(F)F)cc2[nH]1,3.2 µM
24,O=C1c2ccccc2NC(c2ccc(-c3ccc(C(F)(F)F)cc3)o2)N1O (stereo not given),2.4 µM

row,SMILES,AC50
1,S=C1SCN(Cc2cccnc2)CN1Cc1cccnc1,4.06 µM
2,CCCSC(=S)c1c(C)[nH]n(-c2ccccc2)c1=O,5.46 µM
3,S=C(NCCCc1ccccc1)Nc1ccccc1Cl,9.44 µM
4,CCCCCCn1c(=O)c(C(=O)Nc2ncccc2C)c(O)c2ccccc21,3.03 µM
5,CC(C)(C)n1nc(-c2ccc(Cl)cc2)c2c(N)ncnc21,1.56 µM
6,CC(C)C(=O)NC(c1cccc([N+](=O)[O-])c1)c1ccc2cccnc2c1O (stereo not given),1.27 µM
7,Cc1nc2ccc(C(=O)NCc3ccc4c(c3)OCO4)cc2s1,4.51 µM
8,CCc1cc(C(=O)Nc2nc(-c3ccccn3)cs2)sc1C,4.3 µM
9,COc1ccc(N(C)S(=O)(=O)c2ccc(Cl)c(C(=O)NNC(=O)c3ccccc3O)c2)cc1,2.52 µM
10,C(=C1c2ccccc2-c2ccccc21)c1ccncc1,6.18 µM
11,CNC(=S)Nc1ccc(C23CC4CC(CC(C4)C2)C3)cc1,7.25 µM
12,Cc1ccc(NC(=O)CN(C)C(=O)c2cccnc2Nc2cccc(C(F)(F)F)c2)cc1,4.74 µM
13,O=Nc1c(O)c2ccccc2c2ccccc12,0.902 µM
14,CCCOc1ccc(N2C(=O)CC(N3CCC(C(=O)OCC)CC3)C2=O)cc1 (stereo not given),6.34 µM
15,CC1Oc2ccccc2C=C1/C=N/Nc1ccc(C(=O)O)cc1 (stereo not given),10.1 µM
16,COc1ccc(N=N/C(=C\O)C(=O)c2cccs2)cc1,7.25 µM
17,COC(OC)c1ccc(C#N)c(SCc2ccccc2)n1,7.52 µM
18,CC1=CC(=O)C=C(C)C1=NOS(=O)(=O)c1ccccc1,4.15 µM
19,CC1CCN(c2ccc3c(c2)S(=O)(=O)c2ccccc2C3=O)CC1,9.89 µM
20,CCCS(=O)(=O)c1c(S(=O)(=O)CCC)c2c(C)cccn2c1C(=O)N/N=C/c1cc(O)cc(O)c1,3.51 µM
21,CCCn1c(=O)c(C(=O)NCc2ccc(OC)c(OC)c2)c(O)c2ccccc21,2.32 µM
22,CC(C)=CCc1c(O)cc(O)c2c1OC(c1ccc(O)cc1)CC2=O (stereo not given),5.76 µM
23,O=S(=O)(Nc1nc2ccccc2nc1N1CCN(c2ccccn2)CC1)c1ccc(Cl)cc1,1.79 µM
24,Cc1ccc(Nc2cc(C)nn2-c2nc(C)cc(C)n2)cc1,3.95 µM

row,SMILES,AC50
1,Cc1c(C(=O)NCCSCc2cccc(C(F)(F)F)c2)cnn1-c1ccc(Cl)cc1,6.1 µM
2,O=C(CN1CC[n+]2c(-c3cccs3)csc21)c1ccc(-c2ccccc2)cc1,7.25 µM
3,CC(C)(C)c1ccc(C(=O)NC(=S)NNC(=O)c2cccs2)cc1,1.89 µM
4,CC1CCN(c2nc(-c3ccncc3)nc3ccccc23)CC1,7.47 µM
5,O=C(COc1ccc([N+](=O)[O-])cc1)Nc1nc(-c2ccccn2)cs1,5.37 µM
6,COc1cc2c(c(OC)c1OC)-c1ccc(O)c(=O)cc1[C@@H](N)CC2,2.52 µM
7,Cc1ccc2c(c1C)-c1c(ccc(C)c1C)C(=O)C2=O,1.48 µM
8,CC(C)CSc1n[nH]c(=S)s1,6.48 µM
9,COc1ccc2c(n1)Sc1nc3ccccc3nc1N2,1.35 µM
10,O=[N+]([O-])c1cc2oc3c(c2c(C=NCc2ccccc2)c1O)CCCC3,0.986 µM
11,C=CCN(CC=C)C(=S)NC(=O)c1ccc(OC)c(Br)c1,7.96 µM
12,CC1CCc2sc(-c3n[nH]c(=S)o3)cc2C1 (stereo not given),5.69 µM
13,Cc1n[nH]c(C)c1N=Nc1ccc(Br)cc1,6.88 µM
14,COc1ccccc1CNC(=O)CSc1ccc(-c2ccccn2)nn1,5.89 µM
15,CCOC(=O)c1ccc(NC(=S)N(Cc2cccnc2)Cc2ccco2)cc1,6.54 µM
16,COc1ccc(O)c(C(=O)CC(=O)c2ccccc2C)c1,6.31 µM
17,NC(=O)N=Nc1c2[nH]c3ccccc3nc-2c2ccccc12,3.89 µM
18,O=C(NC(=S)N(CCc1ccccc1)CCc1ccccc1)c1ccco1,5.34 µM
19,O=C1Nc2c(Br)cccc2C1=O,11.6 µM
20,CN(C)c1nc(-c2ccccn2)nnc1-c1ccccc1,5.25 µM
21,O=[N+]([O-])c1cc(Cl)cc(/C=N/NC(=S)Nc2ccc(S(=O)(=O)N3CCOCC3)cc2)c1O,3.13 µM
22,CCCCn1c(=O)c(C(=O)NCc2ccncc2)c(O)c2ccccc21,4.99 µM
23,CC1=NN(C(N)=S)C(=O)C1N=Nc1cccc(Cl)c1C (stereo not given),3.3 µM
24,CCCC(C)Sc1nc2c([nH]1)c(=S)n(C)c(=O)n2C (stereo not given),8.18 µM

row,SMILES,AC50
1,CC[n+]1c(/C=C/C=C/c2ccc(N(C)C)cc2)sc2ccccc21,3.71 µM
2,CC(=O)NC(c1cccc([N+](=O)[O-])c1)c1ccc2cccnc2c1O (stereo not given),3.95 µM
3,Cc1ccc(C(C)(C)C)cc1S(=O)(=O)Nc1ncnc2sccc12,2.83 µM
4,CC1(C)C=Cc2c(ccc3c2OC[C@@H](c2ccc(O)cc2O)C3)O1,5.69 µM
5,O=C(Nc1ccc(Br)c(C(F)(F)F)c1)c1ccccc1,4.78 µM
6,CCc1sc(C(=O)Nc2nc(-c3ccccn3)cs2)cc1C,1.82 µM
7,CCc1oc2ccccc2c1C(=O)c1cc(Br)c(O)c(Br)c1,3.28 µM
8,O=C(N/N=C/c1cc(Cl)cc([N+](=O)[O-])c1O)c1ccccc1NS(=O)(=O)c1cccs1,1.04 µM
9,Cc1cccc(Oc2nc(-c3ccccn3)nc3ccccc23)c1,6.77 µM
10,O/N=C/c1ccccc1OCc1ccc(Cl)cc1,5.07 µM
11,CC1CC(C)CC(C)C(O)C(C#N)=CC=CCC(C2CCCC2C(=O)O)OC(=O)CC(O)C(C)C1 (stereo not given),5.14 µM
12,CCC(C)Sc1cccc(-c2nc3ccccn3c2NCc2ccccc2)c1 (stereo not given),7.22 µM
13,CCC(NC(=S)NCc1ccc(F)cc1)c1ccc(C(C)C)cc1 (stereo not given),5.15 µM
14,CCCNC(=O)c1ccc2c(=O)c(O)c(-c3ccc(F)cc3)[nH]c2c1,6.08 µM
15,COc1ccc(-c2sc3ccccc3c2C#Cc2cncn2C)cc1,6.77 µM
16,O=C(CSc1ccc(-c2ccccn2)nn1)c1ccccc1,2.48 µM
17,CCc1cc(SC#N)cc(C)c1NC(=O)CCl,4.4 µM
18,Oc1c(C(Nc2cccc(C(F)(F)F)c2)c2ccncc2)ccc2cccnc12 (stereo not given),1.92 µM
19,O=c1c(-c2cccc3ccccc23)[n+]([O-])c2ccccc2n1O,10.4 µM
20,Cc1ccc(C(=O)C(SC(C)(C)C)n2cncn2)cc1 (stereo not given),5.78 µM
21,Cc1nc2ccc(NC(=O)Cc3ccc4c(c3)OCCO4)cc2s1,4.83 µM
22,Cc1ccc(C)c(/C=C/C(=O)c2ccccc(=O)c2O)c1,3.17 µM
23,O=[N+]([O-])c1ccc2c(OCc3nnc(-c4ccccc4Br)o3)ncnc2c1,6.17 µM
24,O=[N+]([O-])c1cccc(C=NNc2ccc3ccccc3n2)c1O,1.69 µM

# — PubChem BioAssay AID540271 (Broad Institute, 2011)
